{"source": "patent EP4316475A1", "about": "“MERKEL CELL ACTIVATOR, SYNAPTIC VESICLE ENHANCER, NEUROTRANSMITTER RELEASE ACCELERATOR, METHOD FOR ASSESSING NEUROTRANSMITTER RELEASE ACTIVITY OF MERKEL CELLS, AND METHOD FOR SCREENING FOR NEUROTRANSMITTER RELEASE ACCELERATOR FOR MERKEL CELLS” (Shiseido Company, Ltd., priority 2021, dated 2022)", "key": {"Merkel cells [1]": {"system": "Merkel cells", "experiment": "Piccolo expression in CK20-positive Merkel cells of cultured scalp samples (fluorescent immunohistochemical staining)", "format": "cell-based, Human", "conditions": "Sandalore 500 µM in medium from day 1, samples collected day 3, control 0.1% DMSO", "description": "Human scalp from the temporal and occipital regions was taken from healthy female subjects (47 to 60 years of age) that had received common cosmetic surgery, and used after obtaining informed consent and ethical approval (Muenster University).\nScalp samples including hair follicles were taken using a 6 mm punch from the occipital region (donors 1, 2, 3 and 4) or the temporal region (donor 5) of subjects: a person (donor 1), a person (donor 2), a person (donor 3), a person (donor 4) and a donor 5). The obtained samples were placed in 25 ng/ml NGF-added DMEM/F12 medium and cultured in a 5% CO2 humidified atmosphere at 37°C (day 0). […]\nThe primary antibodies used were anti-CK20 antibody (distributor: Progen, Product No.: Product No.: 61054) and anti-Piccolo antibody (distributor: Novus Biologicals (Tocris), Product No.: NBP1-90250), and the subsequent secondary antibodies used were Goat anti-Rabbit IgG (H+L) Cross-Adsorbed Secondary Antibody (distributor: Invitrogen, Product No.: A-11008) and Goat anti-Mouse IgG (H+L) Highly Cross-Adsorbed Secondary Antibody (distributor: Invitrogen, Product No.: A-11030), in combination with each of the primary antibodies, respectively. […] The number of CK20-positive cells expressing Piccolo in a specified region in a photograph taken under a fluorescent microscope were counted and shown in a graph (Fig. 4C)."}, "Merkel cells [2]": {"system": "Merkel cells", "experiment": "Neurotransmitter release by Merkel cells in fresh skin epidermis ex vivo (FFN206 fluorescent tracer live imaging)", "format": "cell-based, human", "conditions": "500 µM Sandalore/BSS solution circulated from 300 s to 600 s; control BSS solution alone", "description": "Fresh skin excised from the abdominal region of a healthy subject and a healthy subject, both having undergone cosmetic surgery, was used for experimentation within 5 days, after obtaining informed consent and ethical approval. The skin was exposed to 25 units/ml of a dispase-PBS solution for 15 minutes at 37°C to detach the epidermis.\nThe epidermis isolated from the fresh human skin was cultured for 30 minutes in a high-potassium extracellular solution (5 mM NaCl, 140 mM KCl, 10 mM HEPES (pH 7.4), 10 mM D-glucose, 2 mM MgCl2 and 2 mM CaCl2) containing FFN206 (Tocris, Catalog No. 5043), and the fluorescent-labeled neurotransmitter FFN206 was specifically taken up into the Merkel cells.\nBSS (Balanced salt solution) solution (140 mM NaCl, 5 mM KCl, 10 mM HEPES (pH 7.4), 10 mM D-glucose, 2 mM MgCl2 and 2 mM CaCl2) was circulated for the first 5 minutes, as baseline. After 5 minutes (300 s) until the end of observation (600 s), circulation was with 500 µM Sandalore (Givaudan)/BSS solution (A). […]\nThe cell response was evaluated based on the brightness value of FFN206, using cellSens (Olympus) and MATLAB (Mathworks). […] The change in brightness value of the baseline in each ROI was determined by nonlinear approximation, and the brightness value with the effect of discoloration eliminated was determined based on the approximation results for baseline. […]"}}, "note": "Entries after “also recorded” stand apart in the source; their conditions may differ."}
{"smiles": "CC1=CCC(CCC(C)C(C)O)C1(C)C", "note": "(centres unmarked) [Sandalore, 3-methyl-5-(2,2,3-trimethyl-cyclopenta-3-en-1-yl)-pentan-2-ol]", "values": [{"measurement": "number of CK20-positive cells expressing Piccolo in a specified region", "setting": "Merkel cells [1]", "value": "increased the number of Merkel cells expressing Piccolo"}, {"measurement": "fluorescent brightness value of Merkel cells (FFN206 signal)", "setting": "Merkel cells [2]", "value": "the fluorescent brightness value decreased; also recorded: the brightness value continued to decrease beyond the reaction line calculated from baseline"}]}
